The NIST ThermoML archive (doi:10.1021/acs.jced.7b00904)

Experiment: refractive index (Na D-line) (dimensionless); wn = mass fraction of the nth substance listed
Settings: 101.3 kPa, Liquid, Standard Abbe refractometry

N#C[S-].[K+] [potassium thiocyanate] + O
refractive index
Settings	293 K	298 K	303 K	308 K	313 K
w1 = 0.218	1.3754	1.37475	1.37415	1.3731	1.3728
w1 = 0.244	1.38075	1.3802	1.3796	1.37855	1.3779
w1 = 0.265	1.38565	1.3852	1.3844	1.383	1.38205
w1 = 0.291	1.39085	1.3906	1.3896	1.38835	1.3876
w1 = 0.321	1.39825	1.39675	1.396	1.3949	1.39375
w1 = 0.359	1.4061	1.4054	1.4046	1.4033	1.40235
w1 = 0.381	1.41155	1.4105	1.4097	1.4079	1.40725
w1 = 0.406	1.41705	1.41615	1.4147	1.4139	1.41305
w1 = 0.42	1.41995	1.41945	1.4183	1.41675	1.41585
w1 = 0.435	1.42345	1.423	1.422	1.4199	1.41875
w1 = 0.451	1.42755	1.42705	1.42585	1.4241	1.4229
w1 = 0.468	1.43175	1.43085	1.4295	1.4281	1.4272
w1 = 0.477	1.43375	1.433	1.4319	1.43035	1.4294
w1 = 0.487	1.4358	1.4352	1.4344	1.43245	1.4315
w1 = 0.497	1.43825	1.43755	1.43665	1.4347	1.43375
w1 = 0.507	1.441	1.44045	1.43855	1.43715	1.4362
w1 = 0.518	1.4437	1.443	1.44095	1.4393	1.4385
w1 = 0.529	1.4465	1.44635	1.44455	1.4423	1.44175
w1 = 0.54	1.4493	1.44905	1.44675	1.4451	1.44415
w1 = 0.553	1.4521	1.45205	1.4499	1.4473	1.44725
w1 = 0.565	1.45545	1.45505	1.4534	1.45115	1.45065
w1 = 0.579	1.45915	1.4587	1.4569	1.45455	1.4536
w1 = 0.584	1.46045	1.46015	1.4584	1.4559	1.4554
w1 = 0.59	1.46215	1.4614	1.4599	1.4579	1.45645
w1 = 0.595	1.4635	1.46305	1.46155	1.4595	1.4587
w1 = 0.601	1.46515	1.46505	1.4633	1.46085	1.4596
w1 = 0.607	1.4672	1.46635	1.465	1.46265	1.462
w1 = 0.613	1.4681	1.46775	1.4663	1.46415	1.46305
w1 = 0.62	1.4694	1.4693	1.4682	1.46645	1.46495
w1 = 0.626	1.47155	1.47145	1.46985	1.46845	1.46715
w1 = 0.632	1.4733	1.47285	1.4721	1.4698	1.4689
w1 = 0.639	1.47505	1.4747	1.47385	1.47195	1.4704
w1 = 0.646	1.4771	1.47675	1.4757	1.47355	1.4724
w1 = 0.652	1.478	1.47805	1.4773	1.4761	1.4745
w1 = 0.659	1.4809	1.4805	1.4795	1.4784	1.47655
w1 = 0.667	1.48275	1.4826	1.4813	1.48045	1.47875
w1 = 0.674	1.48485	1.4846	1.4835	1.48215	1.48105
w1 = 0.681	1.4875	1.48685	1.48595	1.48455	1.483
w1 = 0.689	1.4891	1.4885	1.4876	1.4865	1.4855
w1 = 0.697	1.49135	1.4907	1.4896	1.4884	1.4871
w1 = 0.705	1.49315	1.4922	1.49135	1.49005	1.48924
